The text below walks through data of patent publication US9718819B2 (Merck Sharp & Dohme Corp., priority 2012, dated 2017).

The experiment concerns the target HIV-1 RT wild-type enzyme (Human immunodeficiency virus type 1 group M subtype B (isolate HXB2) (HIV-1), UniProt P04585). Description: HIV-1 reverse transcriptase inhibitory activity (RT polymerase assay). Format: biochemical. The note with it: HIV-1 RT wild-type enzyme 83 pM; RNA-dependent DNA polymerase activity; read-out: IC50. Summed up: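 Enzyme and compound were preincubated 30 min at room temperature, then RNA/DNA hybrid (16.6 nM final; HCV-derived RNA, biotinylated primer) plus 2 μM dNTPs and 66.6 nM Ru-dUTP added, 90 min at 37 °C. Avidin capture and ECL counting; percent inhibition relative to DMSO (0%) and 1 μM efavirenz (100%), four-parameter IC50 fit.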

What is called IC50 is the concentration that gives 50% inhibition. With `CS(=O)(=O)c1cc(Cn2cnc(C(F)(F)F)c(Oc3cc(Cl)cc(C#N)c3)c2=O)n[nH]c1=O` [Example 96, 3-chloro-5-((1-((5-(methylsulfonyl)-6-oxo-1,6-dihydropyridazin-3-yl)methyl)-6-oxo-4-(trifluoromethyl)-1,6-dihydropyrimidin-5-yl)oxy)benzonitrile], the IC50 turned out to be 336 nM.
As for `CCS(=O)(=O)c1cc(Cn2cnc(C(F)(F)F)c(Oc3cc(Cl)cc(C#N)c3)c2=O)n[nH]c1=O` [Example 97, 3-chloro-5-((1-((5-(ethylsulfonyl)-6-oxo-1,6-dihydropyridazin-3-yl)methyl)-6-oxo-4-(trifluoromethyl)-1,6-dihydropyrimidin-5-yl)oxy)benzonitrile], the figure is 247 nM; as for `N#Cc1cc(Cl)cc(Oc2c(C(F)(F)F)ncn(Cc3cc(-c4ccc(F)cn4)c(=O)[nH]n3)c2=O)c1` [Example 98, 3-chloro-5-((1-((5-(5-fluoropyridin-2-yl)-6-oxo-1,6-dihydropyridazin-3-yl)methyl)-6-oxo-4-(trifluoromethyl)-1,6-dihydropyrimidin-5-yl)oxy)benzonitrile], 9 nM.
On to `N#Cc1cc(Cl)cc(Oc2c(C(F)(F)F)ncn(Cc3cc(-c4ccc(Cl)cn4)c(=O)[nH]n3)c2=O)c1` [Example 99, 3-chloro-5-((1-((5-(5-chloropyridin-2-yl)-6-oxo-1,6-dihydropyridazin-3-yl)methyl)-6-oxo-4-(trifluoromethyl)-1,6-dihydropyrimidin-5-yl)oxy)benzonitrile], for which the concentration for half-maximal inhibition (IC50) was found to be 7 nM.
As for `COC(=O)c1cc(Cn2cnc(C(F)(F)F)c(Oc3cc(Cl)cc(C#N)c3)c2=O)n[nH]c1=O` [Example 100, methyl 6-((5-(3-chloro-5-cyanophenoxy)-6-oxo-4-(trifluoromethyl)pyrimidin-1(6H)-yl)methyl)-3-oxo-2,3-dihydropyridazine-4-carboxylate], the figure is 23 nM.
For `N#Cc1cc(Cl)cc(Oc2c(C(F)(F)F)ncn(Cc3cc(C(N)=O)c(=O)[nH]n3)c2=O)c1` [Example 101, 6-((5-(3-chloro-5-cyanophenoxy)-6-oxo-4-(trifluoromethyl)pyrimidin-1(6H)-yl)methyl)-3-oxo-2,3-dihydropyridazine-4-carboxamide], the half-inhibitory concentration (IC50) was 153 nM.
As for `N#Cc1cc(Cl)cc(Oc2c(C(F)(F)F)ncn(Cc3cc(C(F)F)c(=O)[nH]n3)c2=O)c1` [Example 102, 3-chloro-5-((1-((5-(difluoromethyl)-6-oxo-1,6-dihydropyridazin-3-yl)methyl)-6-oxo-4-(trifluoromethyl)-1,6-dihydropyrimidin-5-yl)oxy)benzonitrile], the figure is 20 nM; as for `N#Cc1cc(Cl)cc(Oc2c(C(F)(F)F)ncn(Cc3cc(C(O)C(F)(F)F)c(=O)[nH]n3)c2=O)c1` (centres unmarked) [Example 103, 3-chloro-5-((6-oxo-1-((6-oxo-5-(2,2,2-trifluoro-1-hydroxyethyl)-1,6-dihydropyridazin-3-yl)methyl)-4-(trifluoromethyl)-1,6-dihydropyrimidin-5-yl)oxy)benzonitrile], 74 nM.
As for `CC(=O)c1cc(Cn2cnc(C(F)(F)F)c(Oc3cc(Cl)cc(C#N)c3)c2=O)n[nH]c1=O` [Example 105, 3-((1-((5-acetyl-6-oxo-1,6-dihydropyridazin-3-yl)methyl)-6-oxo-4-(trifluoromethyl)-1,6-dihydropyrimidin-5-yl)oxy)-5-chlorobenzonitrile], the figure is 19 nM; as for `COc1cc(Cn2cnc(C(F)(F)F)c(Oc3cc(Cl)cc(C#N)c3)c2=O)n[nH]c1=O` [Example 106, 3-chloro-5-((1-((5-methoxy-6-oxo-1,6-dihydropyridazin-3-yl)methyl)-6-oxo-4-(trifluoromethyl)-1,6-dihydropyrimidin-5-yl)oxy)benzonitrile], 12 nM; as for `N#Cc1cc(Cl)cc(Oc2c(C(F)(F)F)ncn(Cc3cc(O)c(=O)[nH]n3)c2=O)c1` [Example 107, 3-chloro-5-((1-((5-hydroxy-6-oxo-1,6-dihydropyridazin-3-yl)methyl)-6-oxo-4-(trifluoromethyl)-1,6-dihydropyrimidin-5-yl)oxy)benzonitrile], 223 nM.
